Test systems include HL-60; IGROV-1; RPMI-8226; EKVX; NCI-H23; U-251; HT-29; OVCAR-8; SK-MEL-5; HOP-62; SF-539; Malme-3M; A549; SR; HOP-92; SK-MEL-2.
Assay in all cases: NCI anticancer screen, dose series, 48 h

The structures appear in SMILES notation.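 Each compound was tested at five concentrations against cells in 96-well plates for 48 hours. GI50 marks 50% less growth.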 Calls of active or inactive are those of the source. No stated cut-off is given here; in the data, active = GI50 up to about 1.1 µM and inactive = higher.

Turning to `O=C(O)c1ccccc1/N=N/c1ccc2oc(=O)c(C(=O)Nc3ccccc3)cc2c1`, the GI50 in the assay on HL-60 was 24.4 µM (inactive); in the assay on IGROV-1, 46.5 µM (inactive); in the assay on RPMI-8226, 19.1 µM (inactive); with EKVX it was 30.1 µM (inactive); in the assay with NCI-H23 it was 34 µM (inactive); in the assay with U-251 it was 42.4 µM (inactive). In addition, the GI50 in the assay with HT-29 is 38.4 µM (inactive); with OVCAR-8, 38.1 µM (inactive); in the assay with SK-MEL-5, 28.4 µM (inactive); in the assay on HOP-62 it was 35.6 µM (inactive); in the assay with SF-539 it was 31.3 µM (inactive); with Malme-3M, 23.7 µM (inactive). Also, in the assay with A549, the GI50 is 40.8 µM (inactive).

Take `Cc1c2n(c(=O)[nH]c1=O)C1OC(CO)C(O2)C1O` (configuration not stated): the GI50 in the assay on SR, in the assay with HL-60, with IGROV-1, with RPMI-8226, with EKVX and in the assay on NCI-H23 was > 100 µM (inactive) in each case. Moreover, the GI50 in the assay with U-251, with HT-29, with HOP-92, in the assay on OVCAR-8, with SK-MEL-5 and in the assay with HOP-62 was > 100 µM (inactive) throughout. Moreover, the GI50 in the assay with SF-539, in the assay with SK-MEL-2 and in the assay with A549 was > 100 µM (inactive) throughout.

On to `Cc1c(C(=O)/C=C/c2c(Cl)cccc2Cl)c(=O)n(-c2ccccc2)n1C`, for which the GI50 in the assay on IGROV-1 is 30.1 µM (inactive); in the assay with EKVX, 50.1 µM (inactive); in the assay with U-251, 0.0147 µM (active); in the assay on HT-29 it was 18 µM (inactive); in the assay on HOP-92 it was 17.6 µM (inactive); in the assay on OVCAR-8, 16.7 µM (inactive). For the same molecule, the GI50 in the assay on SF-539 was > 10 µM (inactive); in the assay with Malme-3M, 53.8 µM (inactive); in the assay on SK-MEL-2, 26.1 µM (inactive); with A549, 15.1 µM (inactive).

`COC(=O)Cc1cc(=O)oc2c1C(=O)CCC2`: the GI50 with HL-60, with IGROV-1, with RPMI-8226, with EKVX, in the assay on NCI-H23 and in the assay with U-251 was > 100 µM (inactive) throughout. Besides, the GI50 in the assay on HT-29, in the assay on HOP-92, in the assay with OVCAR-8, with SK-MEL-5, in the assay with HOP-62 and in the assay on SF-539 was > 100 µM (inactive) each time. Moreover, the GI50 in the assay with Malme-3M, in the assay with SK-MEL-2 and with A549 was > 100 µM (inactive) throughout.

For `COC1(OC)C(N(C)C)=C(Cl)C(=O)/C1=C/C=O`, the GI50 was 57.3 µM (inactive) in the assay on SR; 77.4 µM (inactive) with HL-60; > 100 µM (inactive) in the assay with IGROV-1; 61 µM (inactive) in the assay on RPMI-8226; > 100 µM (inactive) in the assay on NCI-H23; > 100 µM (inactive) in the assay with U-251. In addition, the GI50 with HT-29 is > 100 µM (inactive); in the assay with HOP-92 it was 47 µM (inactive); in the assay on OVCAR-8 it was > 100 µM (inactive); with SK-MEL-5, > 100 µM (inactive); in the assay with HOP-62 it was > 100 µM (inactive); with Malme-3M, > 100 µM (inactive). Also, in the assay with A549, the GI50 is > 100 µM (inactive).

For `C[S+](C)CCOC(=O)C(=[N+]=[N-])c1ccc([N+](=O)[O-])cc1`, the GI50 with HL-60, with IGROV-1, with RPMI-8226, in the assay on EKVX, with NCI-H23 and with U-251 was > 100 µM (inactive) each time. In addition, the GI50 in the assay with HT-29, with OVCAR-8, in the assay on SK-MEL-5, in the assay on HOP-62, with SF-539 and in the assay on Malme-3M was > 100 µM (inactive) in each case. Also, the GI50 in the assay on SK-MEL-2 and with A549 was > 100 µM (inactive) throughout.

For `C=CNC(=O)NC(=O)CSc1nc(=O)c(-c2ccccc2NC(=O)C(F)(F)F)n[nH]1`, the GI50 with SR is 84.3 µM (inactive); with IGROV-1, > 100 µM (inactive); with EKVX, 75 µM (inactive); in the assay on NCI-H23, 34.8 µM (inactive); in the assay on U-251, 23.7 µM (inactive); with HT-29, > 100 µM (inactive). Also, the GI50 was 21.6 µM (inactive) with HOP-92; > 100 µM (inactive) in the assay on OVCAR-8; 0.569 µM (active) in the assay on SK-MEL-5; 94 µM (inactive) with HOP-62; 74.6 µM (inactive) with SF-539; 15.5 µM (inactive) with Malme-3M. Further, the GI50 with SK-MEL-2 and with A549 was > 100 µM (inactive) each time.

`CC(C)C1CCC/C=C/C=C/C=C/C=C/C(OC2OC(C)C(O)C(N)C2O)CC2OC(O)(CC(O)CC(O)C(O)CCC(=O)O1)CC(O)C2C(=O)O` (configuration not stated): the GI50 in the assay with SR, in the assay on HL-60, in the assay with IGROV-1, in the assay with RPMI-8226, with U-251 and in the assay with HT-29 was > 52.5 µM (inactive) in each case. Besides, the GI50 in the assay on HOP-92, in the assay with OVCAR-8, in the assay with SK-MEL-5, in the assay on HOP-62, in the assay on SF-539 and in the assay with Malme-3M was > 52.5 µM (inactive) in each case. Besides, in the assay on A549, the GI50 is > 52.5 µM (inactive).

With `CC(C)(C)c1cc(C(P(=O)(O)O)P(=O)(O)O)cc(C(C)(C)C)c1O`, the GI50 in the assay with HL-60, in the assay with IGROV-1, in the assay on RPMI-8226, with EKVX, in the assay on NCI-H23 and in the assay on U-251 was > 100 µM (inactive) throughout. The GI50 with HT-29, in the assay with HOP-92, in the assay with OVCAR-8, with SK-MEL-5, in the assay on HOP-62 and in the assay on SF-539 was > 100 µM (inactive) throughout. Also, the results for the GI50 in the assay on Malme-3M, in the assay on SK-MEL-2 and in the assay on A549 were > 10 µM (inactive), > 100 µM (inactive) and > 100 µM (inactive), respectively.

As for `CCOC(=O)c1nc2ccc(Cl)cc2c2c1CCO2`, the GI50 in the assay with HL-60 was 18.2 µM (inactive); in the assay with IGROV-1 it was 58.2 µM (inactive); in the assay on EKVX, > 100 µM (inactive); with NCI-H23 it was > 100 µM (inactive); in the assay with U-251, 74.6 µM (inactive); with HT-29, > 100 µM (inactive). In addition, the GI50 in the assay on OVCAR-8 is > 100 µM (inactive); in the assay on SK-MEL-5 it was 55.6 µM (inactive); in the assay with HOP-62, 82.4 µM (inactive); with SF-539, 95.1 µM (inactive); in the assay with Malme-3M it was > 100 µM (inactive); in the assay with A549, > 100 µM (inactive).

For `COC1OC(C)C(O)CC1OS(=O)(=O)c1ccc(C)cc1` (configuration not stated), the GI50 in the assay with HL-60, in the assay with IGROV-1, with RPMI-8226, with EKVX, in the assay on NCI-H23 and in the assay on U-251 was > 100 µM (inactive) each time. The GI50 in the assay with HT-29, in the assay on HOP-92, with OVCAR-8, in the assay on SK-MEL-5, in the assay on SF-539 and with Malme-3M was > 100 µM (inactive) in each case. For the same molecule, the GI50 in the assay with SK-MEL-2 and in the assay with A549 was > 100 µM (inactive) throughout.

Turning to `CC1=C(C(=O)Nc2cccc(C(F)(F)F)c2)C(c2ccc(O)cc2)C(C(=O)Nc2cccc(C(F)(F)F)c2)=C(C)N1`, the GI50 in the assay on HL-60 is 15.1 µM (inactive); in the assay on IGROV-1, 15.6 µM (inactive); in the assay with RPMI-8226, 7.35 µM (inactive); in the assay with EKVX, 18.1 µM (inactive); with NCI-H23, 16.1 µM (inactive); with U-251, 17.1 µM (inactive). The GI50 is 16 µM (inactive) in the assay on HT-29; 11.5 µM (inactive) in the assay with HOP-92; 23.2 µM (inactive) in the assay on OVCAR-8; 16.9 µM (inactive) in the assay with SK-MEL-5; 19.5 µM (inactive) in the assay on HOP-62; 26.5 µM (inactive) with SF-539. For the same molecule, the results for the GI50 in the assay on Malme-3M, in the assay on SK-MEL-2 and with A549 were 25.8 µM (inactive), 17.3 µM (inactive) and 24.4 µM (inactive), respectively.

On to `Cc1ccccc1-c1c(N)nc(NC#N)nc1C(=O)Nc1ccccc1`, for which the GI50 in the assay with SR, with IGROV-1, in the assay on RPMI-8226, with EKVX, in the assay on NCI-H23 and in the assay with U-251 was > 100 µM (inactive) each time. Besides, the GI50 is > 100 µM (inactive) in the assay on HT-29; 42.9 µM (inactive) in the assay on HOP-92; > 100 µM (inactive) in the assay on SK-MEL-5; > 100 µM (inactive) with HOP-62; > 100 µM (inactive) in the assay on SF-539; > 100 µM (inactive) with Malme-3M. The figures for the GI50 with SK-MEL-2 and in the assay with A549 were 32.1 µM (inactive) and > 100 µM (inactive), respectively.

Turning to `CC(=O)C1C(=O)N(C(C)C)C[C@@H]2CCC(=O)C[C@H]12` (some centres not stated), the GI50 in the assay with HL-60, in the assay with IGROV-1, in the assay on RPMI-8226, in the assay with EKVX, in the assay on NCI-H23 and with U-251 was > 100 µM (inactive) throughout. The GI50 in the assay on HT-29, in the assay on HOP-92, with OVCAR-8, in the assay on SK-MEL-5, in the assay with HOP-62 and in the assay on SF-539 was > 100 µM (inactive) in each case. Also, the GI50 with Malme-3M, in the assay with SK-MEL-2 and in the assay with A549 was > 100 µM (inactive) in each case.

The values are drawn from ChEMBL document CHEMBL1201862, “PubChem BioAssay data set” (2004).
